Measured values published in patent US20090214445A1, “DELIVERY SYSTEMS FOR MANAGING RELEASE OF FUNCTIONAL INGREDIENTS IN AN EDIBLE COMPOSITION” (Cadbury Adams USA LLC, priority 2005, published 2009).

Assay: Discoloration (degradation) of sucralose during encapsulation
Type: physicochemical
Conditions: with polyvinyl acetate, 2% polyvinylpyrollidone, 1% magnesium stearate; tablets pressed at 25° C., heated to 80° C.
Method: As one example of a hydrophilic coating, sucralose was mixed with powdered polyvinyl acetate and 5% fat and extruded at 110° C. […] In an alternative encapsulation, sucralose was mixed with powdered polyvinyl acetate, 2% polyvinylpyrollidone and 1% magnesium stearate and pressed into tablets at 25° C. The tablets were then heated to 80° C., which softened the polymer and fused the polyvinylacetate with the sucralose. […] Thereafter, the tablets were cooled, ground and sized and analyzed. […] As another example, a polymer/sweetener matrix was prepared as described above in this paragraph. A solution of gum arabic was made and coated on the polymer/sweetener matrix particles using the method described in U.S. Pat. No. 3,196,827, the relevant portions of which are incorporated herein by reference. Coating levels were 20, 30, 40, and 50% for different samples. Chewing gums prepared with the coated polymer/sweetener matrix particles were chewed by a panel with bolus collection at 5, 10, 15, 20 minutes. Residual sucralose was analyzed in each chewed bolus.

- discoloration of the sucralose: No discoloration
Compound: OC[C@H]1O[C@H](O[C@]2(CCl)O[C@H](CCl)[C@@H](O)[C@@H]2O)[C@H](O)[C@@H](O)[C@H]1Cl [sucralose]
